Data as given in patent US20130295154A1, “POLY(METH)ACRYLATE BASED MICROCAPSULES COMPRISING PHEROMONE” (BASF SE, priority 2011, published 2013).

Tested on: male codling moths
Test: Wind tunnel test, behavioral responses of male codling moths
Assay type: in vivo, Cydia pomonella (codling moth)
[1] = Example 6, mean percentage, 100000 μg alone
[2] = Example 5, 100 μg alone, initial values
[3] = Example 6, mean percentage, 100 μg alone

For CC(C)=CCC/C(C)=C/CC/C(C)=C/CO [E,E-farnesol], the “Oriented Flight of Males” value [1] was 0%, the “Source Contact of Males” value [1] was 0% and the “Upwind Response of Males” value [1] was 25%.

CCCCCOC(C)=O [amyl acetate] was tested, and the “Oriented Flight of Males” value [1] was 5%, the “Source Contact of Males” value [1] was 0% and the “Upwind Response of Males” value [1] was 30%.

C/C=C/C=C/CCCCCCCO [codlemone, (E,E)-8,10-dodecadien-1-ol] was tested, and the “Oriented Flight of Males” value [2] was 55, the “Source Contact of Males” value [2] was 40 and the “Upwind Response of Males” value [2] was 60. The “Oriented Flight of Males” value [3] was 60%, the “Source Contact of Males” value [3] was 50% and the “Upwind Response of Males” value [3] was 70%.

For CCCCCCCCCCCCO [dodecanol], the “Oriented Flight of Males” value [1] was 0%, the “Source Contact of Males” value [1] was 0% and the “Upwind Response of Males” value [1] was 20%.

With CCOC(=O)CC(C)C [ethyl isovalerate, ethyl 3-methylbutanoate] the “Oriented Flight of Males” value [1] was 10%, the “Source Contact of Males” value [1] was 0% and the “Upwind Response of Males” value [1] was 30%.

COC(=O)c1ccccc1O [methyl salicylate] was tested, and the “Oriented Flight of Males” value [1] was 0%, the “Source Contact of Males” value [1] was 0% and the “Upwind Response of Males” value [1] was 25%.

In the case of CCCCC/C=C\C=C\C(=O)OCC [pear ester, ethyl (2E,4Z)-decadienoate], the “Oriented Flight of Males” value [1] is reported as 0%, the “Source Contact of Males” value [1] is reported as 0% and the “Upwind Response of Males” value [1] is reported as 27%.
